Ends that are not written are not given here.

Assay [1] deals with T1, GALR3 double mutant L^100F, Y^107H (Homo sapiens, UniProt O60755, L100F/Y107H).
T1 construct: expressed in transfected cells; host or cells: HEK293 cells stably expressing Gqi
T1 sequence (O60755 1-368 L100F/Y107H): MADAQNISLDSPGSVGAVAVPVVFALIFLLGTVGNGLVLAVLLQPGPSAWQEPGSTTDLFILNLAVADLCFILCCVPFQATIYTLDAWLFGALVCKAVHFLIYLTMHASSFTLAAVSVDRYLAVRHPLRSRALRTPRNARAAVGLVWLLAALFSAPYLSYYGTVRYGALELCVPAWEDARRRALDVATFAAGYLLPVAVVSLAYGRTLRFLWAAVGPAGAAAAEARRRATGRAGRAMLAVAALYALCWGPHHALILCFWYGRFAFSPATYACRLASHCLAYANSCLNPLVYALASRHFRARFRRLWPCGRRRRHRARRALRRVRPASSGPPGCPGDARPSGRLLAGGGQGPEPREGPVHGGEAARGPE
Description: SRE-luc luciferase assay, GALR3 L100F,Y107H. To be noted: GALR3 L^100F, SRE-luc in HEK293 Gqi cells, ligand 6 h, mean ± S.E., SEM. In kind it is cell-based. From the text:
For domain swapping between GALR2 and GALR3, individual cDNA fragments of interest were amplified by polymerase chain reaction (PCR) with Pfu polymerase (ELPIS Biotech, Daejeon, Korea) and two specific primers, one corresponding to the 5' or 3' end of the GALR2 or GALR3 cDNA and the other to the region of overlap between the two receptors. The two resulting fragments, one from GALR2 and the other from GALR3, were subjected to a second round of PCR to generate the chimeric cDNAs. To construct single, double-, triple-, pentuple-, hextuple-, and septuple-mutant receptors, amino acids of GALR3 were substituted for the amino acids at the corresponding positions in GALR2 using PCR-based site-directed mutagenesis. All of the chimeric constructs were cloned into the pcDNA3 expression vector at HindⅢ and XbaⅠ sites. The DNA sequences of the chimeras were verified by automatic sequencing. HEK293 cells stably expressing the Gqi construct, which allows induction of Gq-dependent signaling pathways upon activation of a Gi-coupled receptor [14, 30], were maintained in Dulbecco's Modified Eagle's Medium (DMEM) in the presence of 10% fetal bovine serum and 1% penicillin and streptomycin. For all transfections, 200 ng DNA (100 ng receptor and 100 ng SRE-luc) mixed with lipofectamine 2000 was applied to 60–80% confluent cells on a multi-well plate according to the manufacturer's instructions (Invitrogen, Carlsbad, CA). For luciferase assays, HEK293 Gqi cells were seeded on 48-well plates at a density of 2.5 × 10^4 cells/well one day before transfection. […] The luciferase activity in 50 μl cell extract was determined using a luciferase assay system according to the standard protocol for the Synergy 2 Multi-Mode Microplate Reader (BioTek, Winooski, VT, USA). […] The concentrations of agonists that induced half-maximal stimulation (EC50) were calculated using the GraphPad PRISM5 software (GraphPad software, Inc., San Diego, CA). […]

In another assay the target is T2, human GALR2 (Homo sapiens, UniProt O43603).
T2 construct: host or cells: HEK293 cells stably expressing Gqi
T2 sequence (O43603 1-387): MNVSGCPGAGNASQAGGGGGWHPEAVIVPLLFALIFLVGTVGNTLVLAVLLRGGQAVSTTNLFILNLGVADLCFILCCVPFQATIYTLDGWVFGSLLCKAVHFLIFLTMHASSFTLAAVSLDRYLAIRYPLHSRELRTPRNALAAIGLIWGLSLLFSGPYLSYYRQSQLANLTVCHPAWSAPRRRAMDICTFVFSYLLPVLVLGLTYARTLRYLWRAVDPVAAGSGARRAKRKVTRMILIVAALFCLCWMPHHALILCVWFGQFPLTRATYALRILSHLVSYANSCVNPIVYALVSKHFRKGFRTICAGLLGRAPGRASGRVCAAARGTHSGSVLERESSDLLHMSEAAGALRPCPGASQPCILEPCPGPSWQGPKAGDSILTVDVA
Description: SRE-luc luciferase assay, WT GALR2. The assay is classed as cell-based. To be noted: SRE-luc in HEK293 Gqi cells, ligand 6 h, mean ± SE, at least three independent experiments, SEM. The source says: The pcDNA3.1 vector was purchased from Invitrogen (San Diego, CA, USA). The serum response element (SRE)-luciferase (SRE-luc) vector containing a single copy of the SRE (CCATATTAGG) conjugated with luciferase was purchased from Stratagene (La Jolla, CA, USA). The cDNAs for human GALR1, GALR2, and GALR3 were obtained from BRN SCIENCE, Inc. The cDNAs were inserted into the EcoRⅠ and XhoⅠ sites of pcDNA3.1.
HEK293 cells stably expressing the Gqi construct, which allows induction of Gq-dependent signaling pathways upon activation of a Gi-coupled receptor [14, 30], were maintained in Dulbecco's Modified Eagle's Medium (DMEM) in the presence of 10% fetal bovine serum and 1% penicillin and streptomycin. For all transfections, 200 ng DNA (100 ng receptor and 100 ng SRE-luc) mixed with lipofectamine 2000 was applied to 60–80% confluent cells on a multi-well plate according to the manufacturer's instructions (Invitrogen, Carlsbad, CA).
For luciferase assays, HEK293 Gqi cells were seeded on 48-well plates at a density of 2.5 × 10^4 cells/well one day before transfection. A mixture including 100 ng SRE-luc reporter construct, 100 ng expression plasmid, and lipofectamine 2000 reagent in diluted Opti-MEM (Gibco) was incubated at room temperature for 20 min and then added into each well according to the manufacturer's instructions (Invitrogen, CA, USA). Before exposure to the ligands, the cells were maintained in serum-free DMEM for 16–18 h. Approximately 48 h after transfection, the cells were treated with ligand for 6 h. The cells were then lysed by the addition of 100 μl lysis buffer. The luciferase activity in 50 μl cell extract was determined using a luciferase assay system according to the standard protocol for the Synergy 2 Multi-Mode Microplate Reader (BioTek, Winooski, VT, USA).
Data analysis was performed by non-linear regression with a sigmoidal dose-response curve. The concentrations of agonists that induced half-maximal stimulation (EC50) were calculated using the GraphPad PRISM5 software (GraphPad software, Inc., San Diego, CA). All data are presented as the mean ± standard error (SE) of at least three independent experiments.

`CSCC[C@H](NC(=O)[C@H](C)NC(=O)[C@H](CCC(N)=O)NC(=O)[C@@H]1CCCN1C(=O)[C@@H](NC(=O)[C@H](Cc1c[nH]c2ccccc12)NC(=O)[C@@H](N)CC(N)=O)[C@@H](C)O)C(=O)N[C@@H](CC(C)C)C(=O)N[C@@H](Cc1ccc(O)cc1)C(=O)N[C@@H](CC(C)C)C(=O)N[C@@H](CCCCN)C(=O)NCC(=O)N[C@@H](C)C(=O)N[C@@H](CCC(N)=O)C(N)=O` [SPX, reference compound]: the EC50 (usually the concentration needed to bring the measured effect to its halfway point) in assay [1] was 38.9 ± 7.28 nM.

Consider NWTPNAMLYLKGAQ-NH2 [N^5-SPX], for which the half-maximal effective concentration (EC50) was 87.7 ± 10.6 nM at human GALR2 and 155 ± 40.1 nM in assay [1].

Turning to NWTPQAALYLKGAQ-NH2 [A^7-SPX], the concentration for a half-maximal effect (EC50) at human GALR2 was found to be 40.7 ± 13.2 nM; in assay [1], 69.2 ± 20.2 nM.

With NWTPQAMLYLKGPQ-NH2 [P^13-SPX], on human GALR2, the EC50 came to 33.1 ± 6.19 nM.
